Species on record: Rattus norvegicus
Experiment: Open TG-GATES - Regimen: Daily Repeat
Type: toxicity, organism-based, Sprague-Dawley
Design: regimen Daily Repeat, gender Male, age 6 weeks
Settings: in vivo, po, 0 mg/kg, route gavage, dose level Control; for APTT / Bas / Eos / Fbg / Hb / Ht / Lym / MCH / MCHC / MCV / Mono / Neu / PT / Plat / RBC / Ret / WBC: tissue Blood; for KIDNEY_L / KIDNEY_R / KIDNEY_TOTAL: tissue Kidney; for LIVER: tissue Liver; for A/G / ALP / ALT / AST / BUN / CRE / Ca / Cl / DBIL / GLC / IP / K / LDH / Na / PL / RALB / TBIL / TC / TG / TP / gamma-GTP: tissue Plasma

In the case of `C=CCO` [ALLYL ALCOHOL], the TERMINAL_BW (72 h, time 3 day) is reported as 237.2 g, the APTT (72 h, time 3 day) is reported as 19.1 s and the Bas (72 h, time 3 day) is reported as 0%. For the same molecule, the Eos (72 h, time 3 day) was 1%, the Fbg (72 h, time 3 day) was 221.6 mg/dL and the Hb (72 h, time 3 day) was 13.4 g/dL. It also gave a Ht (72 h, time 3 day) of 39.6%, a Lym (72 h, time 3 day) of 79.4% and an MCH (72 h, time 3 day) of 21 pg. For the same molecule, the MCHC (72 h, time 3 day) was 33.8%, the MCV (72 h, time 3 day) was 62.1 fL and the Mono (72 h, time 3 day) was 2.8%. The Neu (72 h, time 3 day) was 16.6%, the PT (72 h, time 3 day) was 11.7 s and the Plat (72 h, time 3 day) was 133.7 x10_4/uL. The RBC (72 h, time 3 day) was 638 x10_4/ul, the Ret (72 h, time 3 day) was 5.7% and the WBC (72 h, time 3 day) was 129.8 x10_2/uL. The KIDNEY_L (72 h, time 3 day) was 1 g, the KIDNEY_R (72 h, time 3 day) was 1 g and the KIDNEY_TOTAL (72 h, time 3 day) was 2 g. The LIVER (72 h, time 3 day) was 11.1 g, the A/G (72 h, time 3 day) was 1.6 and the ALP (72 h, time 3 day) was 952.4 IU/L. For the same molecule, the ALT (72 h, time 3 day) was 38 IU/L, the AST (72 h, time 3 day) was 65.8 IU/L and the BUN (72 h, time 3 day) was 16.2 mg/dL. The CRE (72 h, time 3 day) was 0.4 mg/dL, the Ca (72 h, time 3 day) was 10.7 mg/dL and the Cl (72 h, time 3 day) was 103.4 meq/L. The DBIL (72 h, time 3 day) was 0.088 mg/dL, the GLC (72 h, time 3 day) was 225.8 mg/dL and the IP (72 h, time 3 day) was 6.1 mg/dL. The K (72 h, time 3 day) was 4 meq/L, the LDH (72 h, time 3 day) was 245.4 IU/L and the Na (72 h, time 3 day) was 140.8 meq/L. The PL (72 h, time 3 day) was 148.2 mg/dL, the RALB (72 h, time 3 day) was 3.4 g/dL and the TBIL (72 h, time 3 day) was 0.1 mg/dL. It also gave a TC (72 h, time 3 day) of 77.4 mg/dL, a TG (72 h, time 3 day) of 110.2 mg/dL and a TP (72 h, time 3 day) of 5.4 g/dL. For the same molecule, the gamma-GTP (72 h, time 3 day) was 0.8 IU/L, the TERMINAL_BW ([…], time 7 day) was 272.9 g and the TERMINAL_BW ([…], time 14 day) was 319.8 g. The TERMINAL_BW ([…], time 28 day) was 385.1 g, the APTT ([…], time 7 day) was 20 s and the Bas ([…], time 7 day) was 0%. It also gave an Eos ([…], time 7 day) of 1%, a Fbg ([…], time 7 day) of 227.6 mg/dL and a Hb ([…], time 7 day) of 13.3 g/dL. For the same molecule, the Ht ([…], time 7 day) was 38.8%, the Lym ([…], time 7 day) was 79.4% and the MCH ([…], time 7 day) was 20.9 pg. It also gave an MCHC ([…], time 7 day) of 34.4%, an MCV ([…], time 7 day) of 60.6 fL and a Mono ([…], time 7 day) of 3%. The Neu ([…], time 7 day) was 16.2%, the PT ([…], time 7 day) was 11.9 s and the Plat ([…], time 7 day) was 136 x10_4/uL. It also gave an RBC ([…], time 7 day) of 640.4 x10_4/ul, a Ret ([…], time 7 day) of 5% and a WBC ([…], time 7 day) of 119.1 x10_2/uL. The APTT ([…], time 14 day) was 19.8 s, the Bas ([…], time 14 day) was 0% and the Eos ([…], time 14 day) was 1%. For the same molecule, the Fbg ([…], time 14 day) was 229 mg/dL, the Hb ([…], time 14 day) was 14.2 g/dL and the Ht ([…], time 14 day) was 41%. The Lym ([…], time 14 day) was 78.2%, the MCH ([…], time 14 day) was 20.2 pg and the MCHC ([…], time 14 day) was 34.6%. For the same molecule, the MCV ([…], time 14 day) was 58.5 fL, the Mono ([…], time 14 day) was 2.8% and the Neu ([…], time 14 day) was 17.6%. The PT ([…], time 14 day) was 12 s, the Plat ([…], time 14 day) was 126.7 x10_4/uL and the RBC ([…], time 14 day) was 701.8 x10_4/ul. For the same molecule, the Ret ([…], time 14 day) was 4.1%, the WBC ([…], time 14 day) was 144 x10_2/uL and the APTT ([…], time 28 day) was 20.9 s. For the same molecule, the Bas ([…], time 28 day) was 0%, the Eos ([…], time 28 day) was 1% and the Fbg ([…], time 28 day) was 220.6 mg/dL. It also gave a Hb ([…], time 28 day) of 15.7 g/dL, a Ht ([…], time 28 day) of 45.2% and a Lym ([…], time 28 day) of 81.8%. For the same molecule, the MCH ([…], time 28 day) was 19.6 pg, the MCHC ([…], time 28 day) was 34.7% and the MCV ([…], time 28 day) was 56.5 fL. The Mono ([…], time 28 day) was 2.4%, the Neu ([…], time 28 day) was 14.4% and the PT ([…], time 28 day) was 11.8 s. It also gave a Plat ([…], time 28 day) of 111.6 x10_4/uL, an RBC ([…], time 28 day) of 801.6 x10_4/ul and a Ret ([…], time 28 day) of 2.6%. For the same molecule, the WBC ([…], time 28 day) was 94.8 x10_2/uL, the KIDNEY_L ([…], time 7 day) was 1.1 g and the KIDNEY_R ([…], time 7 day) was 1.1 g. For the same molecule, the KIDNEY_TOTAL ([…], time 7 day) was 2.2 g, the KIDNEY_L ([…], time 14 day) was 1.2 g and the KIDNEY_R ([…], time 14 day) was 1.2 g. It also gave a KIDNEY_TOTAL ([…], time 14 day) of 2.4 g, a KIDNEY_L ([…], time 28 day) of 1.3 g and a KIDNEY_R ([…], time 28 day) of 1.3 g. The KIDNEY_TOTAL ([…], time 28 day) was 2.6 g, the LIVER ([…], time 7 day) was 13.1 g and the LIVER ([…], time 14 day) was 14.1 g. For the same molecule, the LIVER ([…], time 28 day) was 16 g, the A/G ([…], time 7 day) was 1.5 and the ALP ([…], time 7 day) was 889.2 IU/L. The ALT ([…], time 7 day) was 34 IU/L, the AST ([…], time 7 day) was 60.8 IU/L and the BUN ([…], time 7 day) was 16.6 mg/dL. For the same molecule, the CRE ([…], time 7 day) was 0.4 mg/dL, the Ca ([…], time 7 day) was 10.9 mg/dL and the Cl ([…], time 7 day) was 102 meq/L. The DBIL ([…], time 7 day) was 0.098 mg/dL, the GLC ([…], time 7 day) was 219.6 mg/dL and the IP ([…], time 7 day) was 6.9 mg/dL. The K ([…], time 7 day) was 3.9 meq/L, the LDH ([…], time 7 day) was 180.4 IU/L and the Na ([…], time 7 day) was 140.6 meq/L. The PL ([…], time 7 day) was 146 mg/dL, the RALB ([…], time 7 day) was 3.4 g/dL and the TBIL ([…], time 7 day) was 0.2 mg/dL. The TC ([…], time 7 day) was 74 mg/dL, the TG ([…], time 7 day) was 124.4 mg/dL and the TP ([…], time 7 day) was 5.6 g/dL. The gamma-GTP ([…], time 7 day) was 0.8 IU/L, the A/G ([…], time 14 day) was 1.4 and the ALP ([…], time 14 day) was 766.2 IU/L. For the same molecule, the ALT ([…], time 14 day) was 34.2 IU/L, the AST ([…], time 14 day) was 61.2 IU/L and the BUN ([…], time 14 day) was 14.8 mg/dL. The CRE ([…], time 14 day) was 0.4 mg/dL, the Ca ([…], time 14 day) was 10.5 mg/dL and the Cl ([…], time 14 day) was 101.4 meq/L. The DBIL ([…], time 14 day) was 0.072 mg/dL, the GLC ([…], time 14 day) was 234 mg/dL and the IP ([…], time 14 day) was 6.9 mg/dL. For the same molecule, the K ([…], time 14 day) was 3.7 meq/L, the LDH ([…], time 14 day) was 223.2 IU/L and the Na ([…], time 14 day) was 140.2 meq/L. The PL ([…], time 14 day) was 141.2 mg/dL, the RALB ([…], time 14 day) was 3.4 g/dL and the TBIL ([…], time 14 day) was 0.1 mg/dL. The TC ([…], time 14 day) was 68.8 mg/dL, the TG ([…], time 14 day) was 101 mg/dL and the TP ([…], time 14 day) was 5.8 g/dL. It also gave a gamma-GTP ([…], time 14 day) of 1.2 IU/L, an A/G ([…], time 28 day) of 1.3 and an ALP ([…], time 28 day) of 588.4 IU/L. For the same molecule, the ALT ([…], time 28 day) was 33.6 IU/L, the AST ([…], time 28 day) was 59.2 IU/L and the BUN ([…], time 28 day) was 15.4 mg/dL. The CRE ([…], time 28 day) was 0.5 mg/dL, the Ca ([…], time 28 day) was 10.5 mg/dL and the Cl ([…], time 28 day) was 101.8 meq/L. The DBIL ([…], time 28 day) was 0.068 mg/dL, the GLC ([…], time 28 day) was 222.2 mg/dL and the IP ([…], time 28 day) was 6.1 mg/dL. The K ([…], time 28 day) was 3.4 meq/L, the LDH ([…], time 28 day) was 166.6 IU/L and the Na ([…], time 28 day) was 140.6 meq/L. The PL ([…], time 28 day) was 141.8 mg/dL, the RALB ([…], time 28 day) was 3.5 g/dL and the TBIL ([…], time 28 day) was 0.1 mg/dL. The TC ([…], time 28 day) was 71.2 mg/dL, the TG ([…], time 28 day) was 100.2 mg/dL and the TP ([…], time 28 day) was 6.2 g/dL. It also gave a gamma-GTP ([…], time 28 day) of 1 IU/L.
